Patent US8431610B2, “Alkanoylamino benzamide aniline HDAC inhibitor compounds” (Gilead Sciences, Inc., priority 2009, dated 2013)

Key:
HDAC-1 = HDAC-1 (Homo sapiens, UniProt Q13547); assay: HDAC inhibitory activity assay with HDAC-1 (fluorophore/quencher peptide substrate); format: biochemical; conditions: enzyme/compound mix incubated at room temperature for 2 hours; reaction about 45 minutes; fluorescence read
Method: (§1) HDAC inhibitory activity of the compound of Example 1 was measured by an assay in which HDAC-1 or -3 were used as a target molecule. The test compound was suspended in and titrated in DMSO. It was then spotted into a 384-well test plate. The enzyme, HDAC-1 or -3, was diluted in assay buffer containing 25 mM Tris-HCl (pH 8.0), 137 mM NaCl, 2.7 mM KCl, and 0.01% Tween-20 and added to the pre-spotted compound. The enzyme/compound mix was incubated at room temperature for 2 hours. The peptide substrate containing a fluorophore/quencher pair was diluted in the same assay buffer and added to the compound/enzyme mix initiating the reaction. The reaction incubated at room temperature for about 45 minutes. A concentrated developer solution was diluted in the assay buffer, and added to the reaction. The reaction was incubated at room temperature for about 15 minutes and relative fluorescence was read on an instrument reader.

HDAC-3 = HDAC-3 (Homo sapiens, UniProt O15379); assay: HDAC inhibitory activity assay with HDAC-3 (fluorophore/quencher peptide substrate); format: biochemical; conditions: enzyme/compound mix incubated at room temperature for 2 hours; reaction about 45 minutes; fluorescence read
HDAC-3, sequence (O15379 whole entry, species assumed): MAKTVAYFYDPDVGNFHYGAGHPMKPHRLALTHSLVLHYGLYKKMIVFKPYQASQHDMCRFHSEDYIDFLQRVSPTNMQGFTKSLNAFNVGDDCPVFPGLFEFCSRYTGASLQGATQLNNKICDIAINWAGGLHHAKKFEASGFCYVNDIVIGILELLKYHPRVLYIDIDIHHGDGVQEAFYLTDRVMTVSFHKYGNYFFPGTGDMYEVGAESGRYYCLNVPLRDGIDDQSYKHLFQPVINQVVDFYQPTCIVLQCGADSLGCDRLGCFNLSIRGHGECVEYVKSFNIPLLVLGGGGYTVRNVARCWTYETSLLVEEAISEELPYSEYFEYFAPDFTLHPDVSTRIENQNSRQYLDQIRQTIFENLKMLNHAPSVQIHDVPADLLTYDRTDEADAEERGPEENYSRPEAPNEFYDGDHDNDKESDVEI
HDAC-3, sequence (Q9Y618 395-489 partner limits assumed, species assumed): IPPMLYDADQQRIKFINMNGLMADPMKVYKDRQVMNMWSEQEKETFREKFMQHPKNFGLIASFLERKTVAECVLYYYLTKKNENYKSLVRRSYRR
Method: as §1

HDAC-1, sequence (Q13547 whole entry, species assumed): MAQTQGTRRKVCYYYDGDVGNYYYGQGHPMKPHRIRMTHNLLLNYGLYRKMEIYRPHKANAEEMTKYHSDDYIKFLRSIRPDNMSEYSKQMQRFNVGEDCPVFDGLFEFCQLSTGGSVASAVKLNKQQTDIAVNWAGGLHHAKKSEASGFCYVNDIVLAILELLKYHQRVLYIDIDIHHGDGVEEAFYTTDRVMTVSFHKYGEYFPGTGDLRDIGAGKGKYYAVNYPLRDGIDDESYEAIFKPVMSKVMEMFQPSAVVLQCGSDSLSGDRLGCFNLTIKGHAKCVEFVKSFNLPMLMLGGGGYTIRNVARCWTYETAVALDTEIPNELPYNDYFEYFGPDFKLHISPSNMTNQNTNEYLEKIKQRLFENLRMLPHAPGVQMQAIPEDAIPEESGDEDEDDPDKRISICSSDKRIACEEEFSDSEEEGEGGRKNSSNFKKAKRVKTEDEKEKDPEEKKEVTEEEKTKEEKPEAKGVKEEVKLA

SMILES	IC50 (HDAC-1) [µM]	IC50 (HDAC-3) [µM]
CC(C(=O)Nc1ccc(C(=O)Nc2ccccc2N)cc1)N1CCCC1=O (centres unmarked) [Example 4, N-(2-Aminophenyl)-4-(2-(2-oxopyrrolidin-1-yl)propanamido)benzamide]	0.0915	0.3
Nc1ccccc1NC(=O)c1ccc(NC(=O)C(c2ccccc2)N2CCOCC2)cc1 (centres unmarked) [Example 6, N-(2-aminophenyl)-4-(2-morpholino-2-phenylacetamido)benzamide]	0.0253	0.144
CC(C(=O)Nc1ccc(C(=O)Nc2cc(-c3ccc(F)cc3)ccc2N)cc1)N1CCCC1=O (centres unmarked) [Example 7, N-(2-Amino-5-(4-fluorophenyl)phenyl)-4-(2-(2-oxopyrrolidin-1-yl)propanamido)benzamide]	0.0027	1.54
CC(C)(C(=O)Nc1ccc(C(=O)Nc2cc(-c3ccc(F)cc3)ccc2N)cc1)N1CCOCC1 [Example 10, N-(2-Amino-5-(4-fluorophenyl)phenyl)-4-(2-methyl-2-morpholinopropanamido)benzamide]	0.0041	3.63
CC(C(=O)Nc1ccc(C(=O)Nc2cc(-c3cccs3)ccc2N)cc1F)N1CCCC1=O (centres unmarked) [Example 11, N-(2-Amino-5-(thiophen-2-yl)phenyl)-3-fluoro-4-(2-(2-oxopyrrolidin-1-yl)propanamido)benzamide]	0.0019	1.04

More lines, now with the values ahead:

IC50 (HDAC-1) [µM]	IC50 (HDAC-3) [µM]	SMILES
0.201	–	CC(C(=O)Nc1ccc(C(=O)Nc2ccccc2N)cc1)N1CCCC1 (centres unmarked) [Example 1, N-(2-Amino-phenyl)-4-(2-pyrrolidin-1-yl-propionylamino)-benzamide]
0.003	3.11	CC(C(=O)Nc1ccc(C(=O)Nc2cc(-c3ccc(F)cc3)ccc2N)cc1)N1CCCC1 (centres unmarked) [Example 2, N-(2-Amino-5-(4-fluorophenyl)phenyl)-4-(2-(pyrrolidin-1-yl)propanamido)benzamide]
0.003	2.1	CC(C(=O)Nc1ccc(C(=O)Nc2cc(-c3cccs3)ccc2N)cc1)N1CCCC1 (centres unmarked) [Example 3, N-(2-Amino-5-(thiophen-2-yl)phenyl)-4-(2-(pyrrolidin-1-yl)propanamido)benzamide]
0.0016	1.04	CC(C(=O)Nc1ccc(C(=O)Nc2cc(-c3cccs3)ccc2N)cc1)N1CCCC1=O (centres unmarked) [Example 5, N-(2-Amino-5-(thiophen-2-yl)phenyl)-4-(2-(2-oxopyrrolidin-1-yl)propanamido)benzamide]
0.0028	1.35	CC(C(=O)Nc1ccc(C(=O)Nc2cc(-c3cccs3)ccc2N)cc1)N1CCOCC1 (centres unmarked) [Example 8, N-(2-Amino-5-(thiophen-2-yl)phenyl)-4-(2-morpholinopropanamido)benzamide]
0.0047	3.06	CC(C(=O)Nc1ccc(C(=O)Nc2cc(-c3ccc(F)cc3)ccc2N)cc1)N1CCOCC1 (centres unmarked) [Example 9]
0.0071	2.23	CC(C(=O)Nc1ccc(C(=O)Nc2cc(-c3ccc(Cl)s3)ccc2N)cc1)N1CCCC1=O (centres unmarked) [Example 12, N-(2-Amino-5-(5-chlorothiophen-2-yl)phenyl)-4-(2-(2-oxopyrrolidin-1-yl)propanamido)benzamide]
